Measured values as given in patent US20260159474A1, “Aminoindane Compounds and Compositions and Methods of Their Therapeutic Use” (Solvonis Therapeutics Ireland Holdings Limited, priority 2021, published 2026).

Tested on: not listed separately
Test: Intrinsic clearance in rat liver microsomes
Type: in vitro ADME
Settings: not given
Protocol: Methods: The general procedure involved incubating test compounds with liver microsomes and subsequently detecting the compounds to determine intrinsic clearance. Clearance was estimated from the rate of depletion k (min-1), the volume of the incubation V (mL), and the amount of microsomal proteins in the incubation M (mg). Intrinsic clearance is defined by the following equation: Clint=k*V/M.
Values for CLint are expressed as μL/min/mg liver microsomes. Verapamil and dextromethorphan were used as positive controls for CYP3A4 and CYP2D6 isoforms, respectively, to confirm metabolic activity. Stock solutions were prepared in DMSO for therapeutic compounds and positive controls verapamil and dextromethorphan (10 mM for all). Working solutions were prepared by diluting stock in MeOH to reach […]. However, this concentration can be varied, e.g., when the test item is not soluble in the selected solvent.
Prior to experimentation, frozen liver microsomes were thawed in a water bath at 37° C. and kept on ice until use. The microsomes were then diluted with 50 mM potassium phosphate buffer pH 7.4 to a protein concentration of 0.56 mg/mL. To prepare test and control items in final incubation conditions, 5 μL of test compound and positive control working solutions were added to 445 μL of microsomes incubation mixture at 0.56 mg/mL and 50 μL of regenerating system.
As it relates to the automated incubation procedure for microsomes incubation, the following procedure was followed. Briefly, 150 μL of quenching solution (ACN containing an appropriate Internal Standard, i.e. Rolipram and Diclofenac for positive and negative ion mode, respectively) was manually dispensed or dispensed by using the Hamilton system in each well of 96 deep well 1 mL plates. Next, 800-1000 μL-aliquots of NADPH regenerating system were pre-warmed at 37° C. for 5 minutes. 5 μL of 50 µM test items and control were added to 445 μL of the 0.56 mg/mL microsomes solution, and the incubation mixture was pre-warmed in a 96 deep well 2 mL plate (incubation plate) at 37° C. for 5 minutes. The incubation reactions were initiated by adding 50 μL of pre-warmed NADPH regenerating system to the incubation mixtures.
50 μL-aliquots were sampled from incubation mixtures at: 0, 3, 10, 15, 30, and 45 minutes. The samples were centrifuged at 3,000 rpm for 10 minutes and further diluted in order to optimize the analytical condition prior to the LC MS/MS or Rapid Fire-MS/MS analysis. Incubations of test items were run in duplicate (n=2) with a single positive control (n=1). For sample analysis, an LC-MS/MS system was used to monitor the test samples/control to internal standard peak area ratios as representative of the test or control item's concentration. Data from test item incubation was processed to give mean values where applicable. Metabolic stability was calculated from the ratio of peak area of the remaining test or control item with internal standard versus time.
Peak areas for test and control items were integrated using Integrator Software from Agilent or Analyst or MultiQuant Software from AB SciexTM and were exported to XLFit or Morphit (The Edge), which were designed to calculate in vitro metabolic stability parameters. The integrated peak areas of the test and control items at the selected time points were divided by the respective peak areas of the IS, and the percent of parent remaining was calculated by normalizing the peak area ratio of parent to IS at 0 min. Observed rate constant (kobs) for parent degradation was calculated by determining the slope of the line of the graph of the natural log of percentage parent remaining versus time of incubation. This was scaled for the protein in the incubation relative to that in the liver.
For `CNC(C)Cc1ccc2c(c1)OCO2` (stereo not shown) [MDMA], the “Cl (μL/min/mg protein) - Rat Microsomes” value was 395 μL/min/mg protein. With `COC(=O)COc1ccc2c(c1)CC(N)C2` (stereo not shown) [CMP-402] the “Cl (μL/min/mg protein) - Rat Microsomes” value was “greatest clearance”.

Same assay, conditions: pH 7.4, read-out: Cl (μL/min/mg protein) - Rat Microsomes
In the case of `COC(=O)c1ccc2c(c1)CC(N)C2` (stereo not shown) [CMP-405, 2-aminoindane-5-methylcarboxylate], the microsomal CLint at 0.5 μM is reported as 143 µL/min/mg. In the case of `COc1ccc2c(c1)CC(N)C2` (stereo not shown) [MEAI, 5-methoxy-2-aminoindane], the microsomal CLint at 0.5 μM is reported as 156 µL/min/mg. Molecule `COc1cc2c(cc1C)CC(N)C2` (stereo not shown) [MMAI, 5-methoxy-6-methyl-2-aminoindane] has a microsomal CLint at 0.5 μM of 200 µL/min/mg. Molecule `COC(=O)c1cc2c(cc1OC)CC(N)C2` (stereo not shown) [CMP-401] has a microsomal CLint at 0.5 μM of 121 µL/min/mg. With `COC(=O)COc1ccc2c(c1)CC(N)C2` (stereo not shown) [CMP-402] the microsomal CLint at 0.5 μM was 2050 µL/min/mg.

Molecular target: T1, CYP3A4 (Homo sapiens, UniProt P08684)
T1 construct: purchased Life Technologies P2377; host or cells: Baculosomes
T1 sequence (P08684 whole entry): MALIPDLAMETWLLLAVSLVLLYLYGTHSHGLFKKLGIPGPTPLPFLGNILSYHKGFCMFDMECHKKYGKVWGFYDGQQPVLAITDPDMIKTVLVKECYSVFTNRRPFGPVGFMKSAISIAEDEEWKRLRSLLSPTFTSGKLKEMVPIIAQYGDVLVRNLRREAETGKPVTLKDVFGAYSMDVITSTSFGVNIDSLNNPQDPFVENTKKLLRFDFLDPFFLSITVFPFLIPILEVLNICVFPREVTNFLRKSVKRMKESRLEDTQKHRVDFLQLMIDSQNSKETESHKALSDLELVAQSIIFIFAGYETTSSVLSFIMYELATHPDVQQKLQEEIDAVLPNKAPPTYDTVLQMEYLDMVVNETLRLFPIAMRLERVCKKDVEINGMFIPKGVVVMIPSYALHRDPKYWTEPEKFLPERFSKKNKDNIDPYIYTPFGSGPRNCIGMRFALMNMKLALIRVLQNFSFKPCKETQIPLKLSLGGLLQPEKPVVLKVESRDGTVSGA
Test: CYP450 inhibition, fluorescent probe substrate
Type: in vitro ADME
Settings: not given
Protocol: Methods: Recombinant human CYP450 isoenzymes were used to metabolize pro-fluorescent probe substrates to fluorescent products. IC50 values determined from the effect of test compounds on the metabolism of these probe substrates were then used to determine inhibitory potency against CYP450 isoforms. The chemical reagents included:
The test system was based on a three-step procedure with a “mix and read” format, where reaction and reading were performed at 37° C. The assays described herein measure in vitro inhibitory effects (pIC50) of compounds on the human P450 isoforms (1A2, 2B6, 2C8, 2C9, 2C19, 2D6, 3A4) expressed in recombinant microsomes. Pro-fluorescent probe substrates were metabolized to fluorescent products by the enzymes. Fluorescence was measured in kinetic mode (1 read/minutes for 10 minutes), and the fluorescence rate was calculated.
Inhibition of the fluorescent signal resulting from P450 activation indicated inhibitory activity and facilitated calculation of the compound pIC50. A quality check was included in each compound plate, wherein the signal window was monitored by performing Z′ calculations ([…] ) and the antagonist potency of internal standards was within the pIC50±2SD range. Concentration response curves (CRCs) of compounds were run on two different test occasions (n 2) by preparing serial dilutions from the same compound stock solution.
To prepare the compound plate, test compounds serial dilutions 1 to 3 were performed from a 10 mM stock solution in DMSO by Biomek FX to generate 10 point CRC with the highest concentrations in columns 3 and 13.
100% DMSO was placed in columns 1 and 2 and used for assay low controls. CYP inhibitor (10 mM miconazole solution in DMSO) was placed in columns 23 and 24 and served as an assay high controls. 1 μL copy plates were then stamped into V-bottom drug plates at a concentration that is 200 fold the final assay concentration. The copy plates were diluted prior to the experiment with assay buffer to reach 4 times the final assay concentration (2% w/v DMSO).
A reference compound (e.g., miconazole) was included in each compound plate in row A, column 3 and 13. The reference compound was diluted and stamped together with test compounds. The final concentrations of the 10 point CRCs of test compounds in the assay plate were 5.00E-05; 1.67E-05; 5.56E-06; 1.85E-06; 6.17E-07; 2.06E-07; 6.86E-08; 2.29E-08; 7.62E-09 and 2.54E-09, respectively. All solutions were prepared immediately before the assay.
Microsomes were added to the buffer prior to the substrate addition. The solution was carefully mixed without vortexing. 30 μL/well of the mixture was then transferred to the assay plate (384-well black plate) using a 16-channel pipette. For each P450 isoformn, a separate plate was prepared and labeled with a barcode. For fluorescence measurement, 10 μL/well of the test compounds were transferred from the compound plate to the assay plate using Biomek FX and the appropriate protocol. The assay plate was then incubated at 37° C. for 10 minutes on a shaker to allow for the interaction between compounds and enzymes.
10 μL/well of the cofactor was then added to the assay plate using the Multidrop before placing the assay plate in the plate reader EnVision to measure fluorescence. The overall final DMSO concentration for the assay was 0.5%. Plates were read every minute for 10 minutes, according to a P450 isoform specific protocol, as shown below.
The CYP3A4 and CYP2C8 were assayed using the Vivid CYP3A4 Baculosomes, CYP2C8 Baculosomes and Vivid DBOMF Substrate (Life Technologies, cat. P2377, PV6138 and P2974 respectively), while 2B6 is tested by Vivid CYP2B6 Baculosomes and Vivid BOMCC Substrate (Life Technologies, cat. P3028 and P2975). Test compounds were prepared as specified above. […]
`COc1ccc2c(c1)CC(N)C2` (stereo not shown) [MEAI, 5-methoxy-2-aminoindane] showed an IC50 greater than 50 µM. Work on `COc1cc2c(cc1C)CC(N)C2` (stereo not shown) [MMAI, 5-methoxy-6-methyl-2-aminoindane] yielded an IC50 greater than 50 µM.

Same assay, conditions: recombinant human isoenzyme, n=2; read-out: Inhibition of CYP3A4, IC50
`CNC(C)Cc1ccc2c(c1)OCO2` (stereo not shown) [MDMA] gave an IC50 greater than 50 µM. `COC(=O)c1ccc2c(c1)CC(N)C2` (stereo not shown) [CMP-405, 2-aminoindane-5-methylcarboxylate] gave an IC50 greater than 50 µM. With `COC(=O)c1cc2c(cc1OC)CC(N)C2` (stereo not shown) [CMP-401] the IC50 was greater than 50 µM. `COC(=O)COc1ccc2c(c1)CC(N)C2` (stereo not shown) [CMP-402] gave an IC50 greater than 50 µM.
